Data set [1] relates to Shigella clinical isolate 6831. Kind of data set: MIC, antibacterial activity. The class given is cell-based.
The subject of data set [2] is VRE. The data set is described as follows: MIC, antibacterial activity. The class given is cell-based, Enterococcus. The settings on record: strain J, Gram-positive.
Data set [3] deals with S. epidermidis AJCCM228. Kind of data set: MIC, antibacterial activity. The class given is cell-based.
Data set [4] relates to L. monocyfogenes ATCC19115. The data set is described as follows: MIC, antibacterial activity. The class given is cell-based, L. monocytogenes. The settings on record: strain L, Gram-positive.
In data set [5] the test system is E. coli BL21 (DE3) with AAC(3)-IV-lnt-pET19b-pps. Kind of data set: MIC, antibacterial activity. The class given is cell-based.
For data set [6], the system named is S. mutans UA159. Kind of data set: MIC, antibacterial activity. Format: cell-based.
For data set [7], the system named is E. coli TolC. The data set is described as follows: MIC, antibacterial activity. The class given is cell-based.
For data set [8], the system named is B. subtilis 168. The data set is described as follows: MIC, antibacterial activity. The class given is cell-based. The conditions noted are these: strain F, Gram-positive.
The subject of data set [9] is B. subtilis 168 with AAC(6')/APH(2”)-pRB374. The data set is described as follows: MIC, antibacterial activity. The class given is cell-based. The settings on record: strain G, Gram-positive.
Data set [10] has as its system B. anthracis 34F2 Sterne strain. The class given is cell-based. The settings on record: strain I, Gram-positive.
Data set [11] has as its system E. coli BL21 (DE3). The data set is described as follows: MIC, antibacterial activity. Format: cell-based.
The test system of data set [12] is E coli BL21 (DE3) with pET22b. The data set is described as follows: MIC, antibacterial activity. Format: cell-based.
The subject of data set [13] is B. cereus ATCC11778. The data set is described as follows: MIC, antibacterial activity. The settings on record: strain H, Gram-positive. Format: cell-based.
The subject of data set [14] is S. aureus NorA. The data set is described as follows: MIC, antibacterial activity. Format: cell-based.
The test system of data set [15] is S. pyogenes serotype M12 (strain MGAS9429). Kind of data set: MIC, antibacterial activity. Format: cell-based.
The test system of data set [16] is E. coli BL21 (DE3) with AAC(6')/APH(2”)-pET22b. Kind of data set: MIC, antibacterial activity. The class given is cell-based.
Data set [17] has as its system E. coli BL21 (DE3) with Eis. The data set is described as follows: MIC, antibacterial activity. Format: cell-based.
Data set [18] deals with E. coli MC1061. The data set is described as follows: MIC, antibacterial activity. Format: cell-based.
Data set [19] relates to MRSA. The data set is described as follows: MIC, antibacterial activity. The class given is cell-based, Staphylococcus aureus. The conditions noted are these: strain C, Gram-positive.
For data set [20], the system named is S. enterica ATCC14028. The data set is described as follows: MIC, antibacterial activity. Format: cell-based. The conditions noted are these: strain U, Gram-negative.
The test system of data set [21] is E. faecalis ATCC29212. Kind of data set: MIC, antibacterial activity. Format: cell-based.
In data set [22] the test system is human RBCs. Kind of data set: Hemolysis assay. The conditions noted are these: 1 h at 37 °C.
The test system of data set [23] is S. mutans UA159. Kind of data set: Time of kill assay. Format: cell-based. The conditions noted are these: at MIC (4e 2.3 μg/mL, TOB 75 μg/mL); after 5 hours of incubation.
The subject of data set [24] is B. subtilis with constitutive YFP expression (PY79). The data set is described as follows: Fluorescence microscopy of YFP-expressing bacteria. Format: cell-based.
In data set [25] the test system is S. pyogenes. Kind of data set: Time of kill assay. The conditions noted are these: at MIC (4e 2.3 μg/mL, TOB 18.8 μg/mL); after 3 hours of incubation. The class given is cell-based.
Data set [26] concerns rat RBCs. The data set is described as follows: Hemolysis assay. The settings on record: 1 h at 37 °C.
The test system of data set [27] is luciferase translation in lysates of E. coli. The settings on record: read-out: IC50, inhibition of luciferase translation; cited from earlier work.

In brackets after ≈: the same amount, converted by molar mass. A value given as a limit tells only on which side of the number the result lay.

For `CCCCCCCCSCC1OC(OC2C(N)CC(N)C(OC3OC(CN)C(O)CC3N)C2O)C(O)C(N)C1O` (stereo not drawn) [4b], the MIC in data set [1] (strain T, Gram-negative) was above 150 µg/mL; in data set [2], above 150 µg/mL; in data set [3] (strain A, Gram-positive), 75 µg/mL (≈ 126 µM); in [4], above 150 µg/mL; in data set [5] (strain P, Gram-negative), above 150 µg/mL; in [6] (strain E, Gram-positive), 150 µg/mL (≈ 252 µM). The MIC in data set [7] (strain R, Gram-negative) is 9.4 µg/mL (≈ 15.8 µM); in [8], 37.5 µg/mL (≈ 62.9 µM); in data set [9], above 150 µg/mL; in [10], 75 µg/mL (≈ 126 µM); in [11] (strain M, Gram-negative), above 150 µg/mL; in data set [12] (strain N, Gram-negative), above 150 µg/mL. Moreover, the minimal inhibitory concentration (MIC) in data set [13] is 150 µg/mL (≈ 252 µM); in data set [14] (strain B, Gram-positive) it was 150 µg/mL (≈ 252 µM); in [15] (strain D, Gram-positive), 150 µg/mL (≈ 252 µM); in [16] (strain O, Gram-negative), above 150 µg/mL; in [17] (strain Q, Gram-negative) it was above 150 µg/mL; in [18] (strain S, Gram-negative), 75 µg/mL (≈ 126 µM). Further, the MIC was above 150 µg/mL in [19]; above 150 µg/mL in data set [20]; above 150 µg/mL in [21] (strain K, Gram-positive).
Consider `CCCCCCCCCCSCC1OC(OC2C(N)CC(N)C(OC3OC(CN)C(O)CC3N)C2O)C(O)C(N)C1O` (stereo not drawn) [4c], for which the MIC in data set [4] amounted to 37.5 µg/mL (≈ 60.1 µM); in data set [8], 37.5 µg/mL (≈ 60.1 µM); in data set [11] (strain M, Gram-negative), 75 µg/mL (≈ 120 µM); in [13], 18.8 µg/mL (≈ 30.1 µM); in data set [14] (strain B, Gram-positive), 37.5 µg/mL (≈ 60.1 µM); in data set [19] it was 75 µg/mL (≈ 120 µM).
Regarding `CCCCCCCCCCCCSCC1OC(OC2C(N)CC(N)C(OC3OC(CN)C(O)CC3N)C2O)C(O)C(N)C1O` (stereo not drawn) [4d], the MIC was 18.8 µg/mL (≈ 28.8 µM) in [4]; 18.8 µg/mL (≈ 28.8 µM) in [11] (strain M, Gram-negative); 18.8 µg/mL (≈ 28.8 µM) in data set [18] (strain S, Gram-negative); 37.5 µg/mL (≈ 57.5 µM) in data set [19].
Take `CCCCCCCCCCCCCCSC[C@H]1O[C@H](O[C@@H]2[C@@H](O)[C@H](O[C@H]3O[C@H](CN)[C@@H](O)C[C@H]3N)[C@@H](N)C[C@H]2N)[C@H](O)[C@@H](N)[C@@H]1O` [4e]: the “hemolysis of human RBCs” value in [22] (18.8 μg/mL) is given as 14.3 ± 1.7%. For the same molecule, the MIC in data set [2] turned out to be 18.8 µg/mL (≈ 27.6 µM); in data set [4], 9.4 µg/mL (≈ 13.8 µM); in data set [5] (strain P, Gram-negative), 2.3 µg/mL (≈ 3.38 µM); in data set [6] (strain E, Gram-positive), 2.3 µg/mL (≈ 3.38 µM); in data set [7] (strain R, Gram-negative), 4.7 µg/mL (≈ 6.91 µM); in data set [9], 4.7 µg/mL (≈ 6.91 µM). For the same molecule, the minimal inhibitory concentration (MIC) in data set [10] is 0.3 µg/mL (≈ 0.441 µM); in [11] (strain M, Gram-negative), 4.7 µg/mL (≈ 6.91 µM); in data set [12] (strain N, Gram-negative), 4.7 µg/mL (≈ 6.91 µM); in [14] (strain B, Gram-positive), 9.4 µg/mL (≈ 13.8 µM); in [15] (strain D, Gram-positive) it was 2.3 µg/mL (≈ 3.38 µM); in [16] (strain O, Gram-negative) it was 4.7 µg/mL (≈ 6.91 µM). In addition, the minimal inhibitory concentration (MIC) stood at 4.7 µg/mL (≈ 6.91 µM) in data set [17] (strain Q, Gram-negative); 4.7 µg/mL (≈ 6.91 µM) in [18] (strain S, Gram-negative); 9.4 µg/mL (≈ 13.8 µM) in data set [19]; 37.5 µg/mL (≈ 55.1 µM) in [20]; 75 µg/mL (≈ 110 µM) in data set [21] (strain K, Gram-positive). Besides, the “Time of kill: viable bacteria after incubation” value in data set [23] and in data set [25] was “no viable bacteria remained” each time. Besides, in data set [24], the “Cell viability / YFP fluorescence by microscopy” value is given as “a significant drop in fluorescence”. For the same molecule, in [26] (18.8 μg/mL), the “hemolysis of rat RBCs” value came out at 19.5 ± 0.3%.
Regarding `CCCCCCCCCCCCS(=O)(=O)CC1OC(OC2C(N)CC(N)C(OC3OC(CN)C(O)CC3N)C2O)C(O)C(N)C1O` (stereo not drawn) [6d], the MIC in [1] (strain T, Gram-negative) is above 150 µg/mL; in data set [2], 75 µg/mL (≈ 110 µM); in [3] (strain A, Gram-positive), 9.4 µg/mL (≈ 13.7 µM); in data set [4], 9.4 µg/mL (≈ 13.7 µM); in data set [5] (strain P, Gram-negative) it was above 150 µg/mL; in data set [6] (strain E, Gram-positive), 9.4 µg/mL (≈ 13.7 µM). For the same molecule, the minimal inhibitory concentration (MIC) in [7] (strain R, Gram-negative) was 2.3 µg/mL (≈ 3.36 µM); in data set [8], 4.7 µg/mL (≈ 6.87 µM); in [9], above 150 µg/mL; in data set [10] it was 2.3 µg/mL (≈ 3.36 µM); in data set [11] (strain M, Gram-negative) it was 75 µg/mL (≈ 110 µM); in data set [12] (strain N, Gram-negative) it was above 150 µg/mL. Further, the minimum inhibitory concentration (MIC) was 9.4 µg/mL (≈ 13.7 µM) in data set [13]; 37.5 µg/mL (≈ 54.8 µM) in data set [14] (strain B, Gram-positive); 18.8 µg/mL (≈ 27.5 µM) in data set [15] (strain D, Gram-positive); above 150 µg/mL in data set [16] (strain O, Gram-negative); above 150 µg/mL in [17] (strain Q, Gram-negative); 18.8 µg/mL (≈ 27.5 µM) in data set [18] (strain S, Gram-negative). Moreover, the minimal inhibitory concentration (MIC) was 75 µg/mL (≈ 110 µM) in [19]; above 150 µg/mL in data set [20]; 9.4 µg/mL (≈ 13.7 µM) in data set [21] (strain K, Gram-positive).
With `CCCCCCCCCCCCCCS(=O)(=O)CC1OC(OC2C(N)CC(N)C(OC3OC(CN)C(O)CC3N)C2O)C(O)C(N)C1O` (stereo not drawn) [6e], the MIC in data set [2] came to 37.5 µg/mL (≈ 52.7 µM); in data set [11] (strain M, Gram-negative) it was 18.8 µg/mL (≈ 26.4 µM); in data set [14] (strain B, Gram-positive), 18.8 µg/mL (≈ 26.4 µM); in data set [19], 18.8 µg/mL (≈ 26.4 µM).
Turning to `NC[C@H]1O[C@H](O[C@H]2[C@H](O)[C@@H](O[C@H]3O[C@H](CO)[C@@H](O)[C@H](N)[C@H]3O)[C@H](N)C[C@@H]2N)[C@H](N)C[C@@H]1O` [TOB, tobramycin, reference compound], in [22] (75 μg/mL), the “hemolysis of human RBCs” value is “no measurable hemolysis”. Also, the minimum inhibitory concentration (MIC) in [1] (Shigella) was 18.8 µg/mL (≈ 40.2 µM); in data set [2] (Enterococcus, VRE) it was at least 150 µg/mL; in [3] (Staphylococcus epidermidis, AJCCM228) it was 0.3 µg/mL (≈ 0.642 µM); in [5] (Escherichia coli), 150 µg/mL (≈ 321 µM); in data set [6] (Streptococcus mutans, UA159), 75 µg/mL (≈ 160 µM); in data set [7] (Escherichia coli), 4.7 µg/mL (≈ 10.1 µM). Also, the MIC in data set [11] (Escherichia coli) was 4.7 µg/mL (≈ 10.1 µM); in [12] (Escherichia coli) it was 9.4 µg/mL (≈ 20.1 µM); in [14] (Staphylococcus aureus), 9.4 µg/mL (≈ 20.1 µM); in data set [15] (Streptococcus pyogenes), 18.8 µg/mL (≈ 40.2 µM); in data set [16] (Escherichia coli), above 150 µg/mL; in data set [16] (strain O, Gram-negative) it was above 150 µg/mL. Also, the minimum inhibitory concentration (MIC) was 18.8 µg/mL (≈ 40.2 µM) in [17] (Escherichia coli); 9.4 µg/mL (≈ 20.1 µM) in [18] (Escherichia coli, MC1061); at least 150 µg/mL in data set [19] (Staphylococcus aureus, MRSA); 150 µg/mL (≈ 321 µM) in data set [21] (Enterococcus faecalis, ATCC29212). For the same molecule, the “Time of kill: viable bacteria after incubation” value in data set [23] and in [25] was “almost no reduction in bacterial growth” in each case. The IC50 in [27] was around 20 nM. Besides, the “hemolysis of rat RBCs” value in data set [26] (75 μg/mL) is “no measurable hemolysis”.

The term MIC denotes the smallest concentration in the dilution series that meets the test's criterion for growth inhibition. Low values mean inhibition by little substance, high ones a need for much substance. The term IC50 denotes the concentration that inhibits the measured activity by half.

Source of the values: article PMC3390782 (Angewandte Chemie (International Ed. in English), 2012).
